Assay results taken from the NIST ThermoML archive (doi:10.1021/je060355j).

How the values were obtained:
[1] = refractive index (Na D-line) (dimensionless); details: 101.33 kPa, Liquid
[2] = Liquid; for mass density: 101.32 kPa
[3] = xn = mol fraction of the nth substance listed; details: 101.32 kPa, Liquid
[4] = excess molar enthalpy (molar enthalpy of mixing); xn = mol fraction of the nth substance listed; details: 291.15 K, 101.32 kPa, Liquid

CCCCOC=O [butyl methanoate]
Details | mass density, 291.15 K [kg/m3] | mass density, 298.15 K [kg/m3] | mass density, 308.15 K [kg/m3] | mass density, 318.15 K [kg/m3] | refractive index, 291.15 K | refractive index, 298.15 K | refractive index, 318.15 K | vapor or sublimation pressure, 380.13 K [kPa]
[1] | – | – | – | – | 1.3904 | 1.3872 | 1.3776 | –
[2] | 896 | 888.66 | 878.24 | 867.21 | – | – | – | 101.32

CCOC=O [ethyl methanoate]
Details | mass density, 291.15 K [kg/m3] | mass density, 298.15 K [kg/m3] | mass density, 308.15 K [kg/m3] | mass density, 318.15 K [kg/m3] | refractive index, 291.15 K | refractive index, 298.15 K | refractive index, 318.15 K | vapor or sublimation pressure, 327.33 K [kPa]
[1] | – | – | – | – | 1.3614 | 1.358 | 1.3474 | –
[2] | 924.7 | 915.16 | 902.07 | 888.42 | – | – | – | 101.32

CCCCCC [hexane]
Details | mass density, 291.15 K [kg/m3] | mass density, 298.15 K [kg/m3] | mass density, 308.15 K [kg/m3] | mass density, 318.15 K [kg/m3] | refractive index, 291.15 K | refractive index, 298.15 K | refractive index, 318.15 K | vapor or sublimation pressure, 341.76 K [kPa]
[1] | – | – | – | – | 1.3765 | 1.372 | 1.3618 | –
[2] | 661.2 | 654.89 | 646.07 | 636.43 | – | – | – | 101.32

CCCCCC [hexane] + CCCCOC=O
[3], x2 = 0
Details | mass density [kg/m3]
291.15 K | 661.2
298.15 K | 654.89
308.15 K | 646.07
318.15 K | 636.43

CCCCCC [hexane] + CCCOC=O
[3], x2 = 0
Details | mass density [kg/m3]
291.15 K | 661.2
298.15 K | 654.89
308.15 K | 646.07
318.15 K | 636.43

CCCCCC [hexane] + CCOC=O
[3], x2 = 0
Details | mass density [kg/m3]
291.15 K | 661.2
298.15 K | 654.89
308.15 K | 646.07
318.15 K | 636.43

CCCCCC [hexane] + COC=O
[3], x2 = 0
Details | mass density [kg/m3]
291.15 K | 661.2
298.15 K | 654.89

COC=O [methyl methanoate]
Details | mass density, 291.15 K [kg/m3] | mass density, 298.15 K [kg/m3] | refractive index, 291.15 K | refractive index, 298.15 K | vapor or sublimation pressure, 304.7 K [kPa]
[1] | – | – | 1.3452 | 1.3415 | –
[2] | 976.9 | 966.54 | – | – | 101.32

COC=O [methyl methanoate] + CCCCCC
[4]
Details | excess molar enthalpy [kcal/mol]
x1 = 0.1408 | 0.253
x1 = 0.252 | 0.389
x1 = 0.3379 | 0.462
x1 = 0.4008 | 0.492
x1 = 0.4618 | 0.504
x1 = 0.5094 | 0.502
x1 = 0.5501 | 0.493
x1 = 0.5862 | 0.481
x1 = 0.6157 | 0.462
x1 = 0.6568 | 0.439
x1 = 0.7033 | 0.41
x1 = 0.7517 | 0.37
x1 = 0.7971 | 0.33
x1 = 0.845 | 0.281
x1 = 0.8923 | 0.219
x1 = 0.9292 | 0.153
x1 = 0.9665 | 0.0896

mass density [kg/m3], [3]
Details | 291.15 K | 298.15 K
x1 = 0.019 | 663 | –
x1 = 0.0376 | – | 659.63
x1 = 0.0499 | 666.3 | –
x1 = 0.0816 | – | 664.26
x1 = 0.0863 | 670.6 | –
x1 = 0.1013 | 672.6 | –
x1 = 0.1209 | 675.3 | –
x1 = 0.1327 | – | 670.55
x1 = 0.1642 | – | 674.8
x1 = 0.2033 | 687.1 | –
x1 = 0.2352 | – | 685.32
x1 = 0.2936 | – | 695.29
x1 = 0.2986 | 702.6 | –
x1 = 0.3828 | 718.9 | –
x1 = 0.3903 | – | 714.41
x1 = 0.4841 | 742.3 | –
x1 = 0.4987 | – | 740.05
x1 = 0.5462 | 759.1 | –
x1 = 0.5979 | – | 768.9
x1 = 0.6061 | 777.4 | –
x1 = 0.6987 | 810.1 | –
x1 = 0.7062 | – | 806.5
x1 = 0.7433 | – | 821.74
x1 = 0.7445 | 829.1 | –
x1 = 0.7956 | 851.5 | –
x1 = 0.7972 | – | 845.31
x1 = 0.8392 | 872.6 | –
x1 = 0.8497 | – | 871.94
x1 = 0.903 | 908.4 | –
x1 = 0.905 | – | 902.05
x1 = 0.9539 | 939.9 | –
x1 = 0.9582 | – | 936.28
x1 = 1 | 976.9 | 966.54

CCCOC=O [propyl methanoate]
Details | mass density, 291.15 K [kg/m3] | mass density, 298.15 K [kg/m3] | mass density, 308.15 K [kg/m3] | mass density, 318.15 K [kg/m3] | refractive index, 291.15 K | refractive index, 298.15 K | refractive index, 318.15 K | vapor or sublimation pressure, 353.92 K [kPa]
[1] | – | – | – | – | 1.3778 | 1.375 | 1.365 | –
[2] | 907.8 | 899.08 | 888.36 | 875.32 | – | – | – | 101.32
